pIC50: −log10 of the molar value.
Experiments:
Type in all cases: cell-based
M3 = M3 (Homo sapiens, UniProt P20309); experiment: In vitro functional assay of muscarinic acetylcholine receptor activity, M3; conditions: antagonist activity; M3 method not separately described
Experimental: [The procedure below names another target; the source lists this target under the same test.] (§1) CHO-K1 cells stably expressing human M1 receptor with Aequorin (Perkin Elmer) were grown in F12 media, 10% FBS with 0.4 mg/mL geneticin and […]. Cells were grown to confluence and frozen down to be assayed at a later date. On the day of the experiment cells were thawed in a 37° C. water bath, resuspended in DMEM/HAM's F12 with HEPES (Invitrogen)+0.1% protease-free BSA (assay buffer), and spun down to remove freezing media. After centrifugation, supernatant was removed and 12 mL of assay buffer was added. Coelenterazine h (Promega) was added to the cells at a final concentration of 5 uM and incubated for 4 hours at room temperature in the dark. Compound master plate-96 deep well (Corning) were formatted in a 8-point DRC in assay buffer with 0.2% DMSO at a starting concentration of 60 uM (2×). After 4 hours of incubation, cells were plated at a concentration of 5×10^5 cells/well in 96 well white-walled, tissue culture-treated, clear-bottom plates (VWR). Compounds were added to the daughter plate, and cells plus compound were incubated at room temperature for 30 minutes in the dark.
(§2) Calcium flux was measured using the FlexStation 3 (Molecular Devices). To measure the antagonist dose-response, the EC80 of Acetylcholine was injected to the daughter plate using the automated compound transfer function of the Flex Station, and the increase in luminescence was measured over time. Antagonist activity was analyzed as a concentration dependent decrease in the EC80 acetylcholine response. Dose response curves were generated using Prism (GraphPad Software). The IC50 of the compounds was calculated from the dose response curve.

human M1 receptor = molecular target: T1, human M1 receptor (Homo sapiens, UniProt P11229); experiment: In vitro functional assay of muscarinic acetylcholine receptor activity (aequorin calcium flux, antagonist mode vs EC80 acetylcholine), M1; conditions: CHO-K1 cells stably expressing human M1 receptor with Aequorin; decrease in EC80 acetylcholine response
T1 construct: host or cells: CHO-K1
T1 sequence (P11229 1-460): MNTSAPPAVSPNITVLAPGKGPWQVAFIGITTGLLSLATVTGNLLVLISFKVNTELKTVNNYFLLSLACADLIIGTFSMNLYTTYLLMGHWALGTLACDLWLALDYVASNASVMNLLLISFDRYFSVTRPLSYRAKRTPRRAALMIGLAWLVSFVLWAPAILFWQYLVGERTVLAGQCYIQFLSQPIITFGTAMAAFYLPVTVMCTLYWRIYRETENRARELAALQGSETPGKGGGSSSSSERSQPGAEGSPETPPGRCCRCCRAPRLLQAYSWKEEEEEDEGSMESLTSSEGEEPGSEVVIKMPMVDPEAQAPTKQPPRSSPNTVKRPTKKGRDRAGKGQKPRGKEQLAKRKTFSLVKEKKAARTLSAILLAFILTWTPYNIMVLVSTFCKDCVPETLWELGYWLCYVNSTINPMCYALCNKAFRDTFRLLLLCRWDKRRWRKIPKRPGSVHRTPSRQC
Experimental: as §1, §2

M2 = molecular target: T2, M2 (Homo sapiens, UniProt P08172); experiment: In vitro functional assay of muscarinic acetylcholine receptor activity, M2; conditions: antagonist activity; M2 method not separately described
T2 sequence (P08172 1-466): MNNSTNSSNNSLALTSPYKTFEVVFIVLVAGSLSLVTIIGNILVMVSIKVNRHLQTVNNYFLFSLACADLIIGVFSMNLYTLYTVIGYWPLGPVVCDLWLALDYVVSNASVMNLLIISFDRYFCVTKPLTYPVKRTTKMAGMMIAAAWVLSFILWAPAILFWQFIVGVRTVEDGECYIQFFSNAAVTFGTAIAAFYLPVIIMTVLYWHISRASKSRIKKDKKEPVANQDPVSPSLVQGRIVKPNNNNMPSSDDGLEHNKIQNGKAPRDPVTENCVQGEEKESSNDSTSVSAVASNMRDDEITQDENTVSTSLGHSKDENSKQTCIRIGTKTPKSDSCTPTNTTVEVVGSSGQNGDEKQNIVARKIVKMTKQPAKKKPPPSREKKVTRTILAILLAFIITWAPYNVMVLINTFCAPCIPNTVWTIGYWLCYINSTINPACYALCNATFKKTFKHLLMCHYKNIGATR
Experimental: [The procedure below names another target; the source lists this target under the same test.] as §1, §2

Sequence of M3 (P20309 whole entry): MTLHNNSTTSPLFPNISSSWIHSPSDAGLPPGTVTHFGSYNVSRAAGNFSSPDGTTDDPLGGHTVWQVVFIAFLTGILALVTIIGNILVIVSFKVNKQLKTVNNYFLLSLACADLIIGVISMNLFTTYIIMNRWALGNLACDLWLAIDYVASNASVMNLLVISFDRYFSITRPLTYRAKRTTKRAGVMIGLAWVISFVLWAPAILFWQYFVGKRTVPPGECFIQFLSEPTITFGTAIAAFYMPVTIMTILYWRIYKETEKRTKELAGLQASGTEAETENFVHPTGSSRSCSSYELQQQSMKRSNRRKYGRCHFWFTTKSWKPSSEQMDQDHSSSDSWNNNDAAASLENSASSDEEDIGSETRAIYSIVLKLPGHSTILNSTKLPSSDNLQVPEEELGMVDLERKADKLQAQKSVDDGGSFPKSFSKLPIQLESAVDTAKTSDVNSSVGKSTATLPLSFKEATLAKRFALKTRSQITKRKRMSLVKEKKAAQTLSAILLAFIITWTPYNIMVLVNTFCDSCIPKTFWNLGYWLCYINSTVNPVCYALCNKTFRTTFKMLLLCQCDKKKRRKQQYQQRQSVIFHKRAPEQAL

| pIC50 (M3) | pIC50 (human M1 receptor) | pIC50 (M2) | Compound |
| --- | --- | --- | --- |
| 6.00 to 7.00 | 6.00 to 7.00 | 6.00 to 7.00 | N#Cc1ccc(N2CCN3C(=O)[C@@H](CCCc4cccc5nncn45)C[C@H]3C2)nc1 [Example 16, 6-((7S,8aS)-7-(3-([1,2,4]triazolo[4,3-a]pyridin-5-yl)propyl)-6-oxohexahydropyrrolo[1,2-a]pyrazin-2(1H)-yl)nicotinonitrile] |
| 5.00 to 6.00 | > 7.00 | 5.00 to 6.00 | N#Cc1ccc(N2CCN3C(=O)[C@@H](CCCc4cccc5nnnn45)C[C@H]3C2)nc1 [Example 17, 6-((7S,8aS)-6-oxo-7-(3-(tetrazolo[1,5-a]pyridin-5-yl)propyl)hexahydropyrrolo[1,2-a]pyrazin-2(1H)-yl)nicotinonitrile] |
| < 5.00 | 5.00 to 6.00 | 5.00 to 6.00 | N#Cc1ccc(N2CCN3C(=O)[C@@H](CCCc4cccc5c4CCC5)C[C@H]3C2)nc1 [Example 18, 6-((7S,8aS)-7-(3-(2,3-dihydro-1H-inden-4-yl)propyl)-6-oxohexahydropyrrolo[1,2-a]pyrazin-2(1H)-yl)nicotinonitrile] |
| 5.00 to 6.00 | > 7.00 | 6.00 to 7.00 | N#Cc1ccc(N2CCN3C(=O)[C@@H](CCCc4cccc5c4CCO5)C[C@H]3C2)nc1 [Example 19, 6-((7S,8aS)-7-(3-(2,3-dihydrobenzofuran-4-yl)propyl)-6-oxohexahydropyrrolo[1,2-a]pyrazin-2(1H)-yl)nicotinonitrile] |
| 5.00 to 6.00 | 6.00 to 7.00 | 5.00 to 6.00 | N#Cc1ccc(N2CCN3C(=O)[C@@H](CCCc4ccc5c(c4)CCO5)C[C@H]3C2)nc1 [Example 20, 6-((7S,8aS)-7-(3-(2,3-dihydrobenzofuran-5-yl)propyl)-6-oxohexahydropyrrolo[1,2-a]pyrazin-2(1H)-yl)nicotinonitrile] |
| 5.00 to 6.00 | > 7.00 | 5.00 to 6.00 | Cc1nc2cccc(CCC[C@H]3C[C@H]4CN(c5ccc(C#N)cn5)CCN4C3=O)c2o1 [Example 21, 6-((7S,8aS)-7-(3-(2-methylbenzo[d]oxazol-7-yl)propyl)-6-oxohexahydropyrrolo[1,2-a]pyrazin-2(1H)-yl)nicotinonitrile] |
| 5.00 to 6.00 | > 7.00 | 6.00 to 7.00 | N#Cc1ccc(N2CCN3C(=O)[C@@H](CCCc4cccc5ncoc45)C[C@H]3C2)nc1 [Example 22, 6-((7S,8aS)-7-(3-(benzo[d]oxazol-7-yl)propyl)-6-oxohexahydropyrrolo[1,2-a]pyrazin-2(1H)-yl)nicotinonitrile] |
| 6.00 to 7.00 | > 7.00 | 5.00 to 6.00 | N#Cc1ccc(N2CCN3C(=O)[C@@H](CCCc4cccc(F)c4C4CC4)C[C@H]3C2)nc1 [Example 25, 6-((7S,8aS)-7-(3-(2-cyclopropyl-3-fluorophenyl)propyl)-6-oxohexahydropyrrolo[1,2-a]pyrazin-2(1H)-yl)nicotinonitrile] |
| 5.00 to 6.00 | 6.00 to 7.00 | < 5.00 | O=C1[C@@H](CCCc2cccc3ncsc23)C[C@H]2CN(c3cccnc3)CCN12 [Example 26, (7S,8aS)-7-(3-(benzo[d]thiazol-7-yl)propyl)-2-(pyridin-3-yl)hexahydropyrrolo[1,2-a]pyrazin-6(2H)-one] |
| 5.00 to 6.00 | 6.00 to 7.00 | < 5.00 | O=C1[C@@H](CCCc2cccc3ncsc23)C[C@H]2CN(c3ccccn3)CCN12 [Example 27, (7S,8aS)-7-(3-(benzo[d]thiazol-7-yl)propyl)-2-(pyridin-2-yl)hexahydropyrrolo[1,2-a]pyrazin-6(2H)-one] |
| 6.00 to 7.00 | > 7.00 | 6.00 to 7.00 | O=C1[C@@H](CCCc2cccc3ncsc23)C[C@H]2CN(c3ccncc3)CCN12 [Example 28, (7S,8aS)-7-(3-(benzo[d]thiazol-7-yl)propyl)-2-(pyridin-4-yl)hexahydropyrrolo[1,2-a]pyrazin-6(2H)-one] |
| 5.00 to 6.00 | > 7.00 | 5.00 to 6.00 | Nc1cc(N2CCN3C(=O)[C@@H](CCCc4cccc5ncsc45)C[C@H]3C2)ccn1 [Example 30, (7S,8aS)-2-(2-aminopyridin-4-yl)-7-(3-(benzo[d]thiazol-7-yl)propyl)hexahydropyrrolo[1,2-a]pyrazin-6(2H)-one] |
| < 5.00 | 5.00 to 6.00 | < 5.00 | O=C1[C@@H](CCCc2cccc3ncnn23)C[C@H]2CN(c3cccc(C(F)(F)F)n3)CCN12 [Example 31, (7S,8aS)-7-(3-([1,2,4]triazolo[1,5-a]pyridin-5-yl)propyl)-2-(6-(trifluoromethyl)pyridin-2-yl)hexahydropyrrolo[1,2-a]pyrazin-6(2H)-one] |
| 5.00 to 6.00 | > 7.00 | 6.00 to 7.00 | O=C1[C@@H](CCCc2cccc3ncnn23)C[C@H]2CN(c3ccc(C(F)(F)F)cn3)CCN12 [Example 32, (7S,8aS)-7-(3-([1,2,4]triazolo[1,5-a]pyridin-5-yl)propyl)-2-(5-(trifluoromethyl)pyridin-2-yl)hexahydropyrrolo[1,2-a]pyrazin-6(2H)-one] |
| 5.00 to 6.00 | 6.00 to 7.00 | 5.00 to 6.00 | O=C1[C@@H](CCCc2cccc3ncnn23)C[C@H]2CN(c3ccnc(C(F)(F)F)c3)CCN12 [Example 33, (7S,8aS)-7-(3-([1,2,4]triazolo[1,5-a]pyridin-5-yl)propyl)-2-(2-(trifluoromethyl)pyridin-4-yl)hexahydropyrrolo[1,2-a]pyrazin-6(2H)-one] |
| 5.00 to 6.00 | > 7.00 | 5.00 to 6.00 | O=C1[C@@H](CCCc2cccc3ncnn23)C[C@H]2CN(c3ccc(Cl)cn3)CCN12 [Example 34, (7S,8aS)-7-(3-([1,2,4]triazolo[1,5-a]pyridin-5-yl)propyl)-2-(5-chloropyridin-2-yl)hexahydropyrrolo[1,2-a]pyrazin-6(2H)-one] |
| < 5.00 | > 7.00 | < 5.00 | O=C1[C@@H](CCCc2cccc3ncnn23)C[C@H]2CN(c3ncc(F)cn3)CCN12 [Example 35, (7S,8aS)-7-(3-([1,2,4]triazolo[1,5-a]pyridin-5-yl)propyl)-2-(5-fluoropyrimidin-2-yl)hexahydropyrrolo[1,2-a]pyrazin-6(2H)-one] |
| 5.00 to 6.00 | > 7.00 | 5.00 to 6.00 | COc1cc(N2CCN3C(=O)[C@@H](CCCc4cccc5ncnn45)C[C@H]3C2)ccn1 [Example 37, (7S,8aS)-2-(2-methoxypyridin-4-yl)-7-(3-{[1,2,4]triazolo[1,5-a]pyridin-5-yl}propyl)-octahydropyrrolo[1,2-a]pyrazin-6-one] |
| < 5.00 | 5.00 to 6.00 | < 5.00 | COc1ccc(N2CCN3C(=O)[C@@H](CCCc4cccc5ncnn45)C[C@H]3C2)cn1 [Example 38, (7S,8aS)-7-(3-([1,2,4]triazolo[1,5-a]pyridin-5-yl)propyl)-2-(6-methoxypyridin-3-yl)hexahydropyrrolo[1,2-a]pyrazin-6(2H)-one] |
| 5.00 to 6.00 | 6.00 to 7.00 | < 5.00 | O=C1[C@@H](CCCc2cccc3ncnn23)C[C@H]2CN(c3ccc(OC(F)F)cn3)CCN12 [Example 39, (7S,8aS)-7-(3-([1,2,4]triazolo[1,5-a]pyridin-5-yl)propyl)-2-(5-(difluoromethoxy)pyridin-2-yl)hexahydropyrrolo[1,2-a]pyrazin-6(2H)-one] |
| < 5.00 | > 7.00 | < 5.00 | Cc1ccc(N2CCN3C(=O)[C@@H](CCCc4cccc5ncnn45)C[C@H]3C2)nc1 [Example 40, (7S,8aS)-7-(3-([1,2,4]triazolo[1,5-a]pyridin-5-yl)propyl)-2-(5-methylpyridin-2-yl)hexahydropyrrolo[1,2-a]pyrazin-6(2H)-one] |

Reference: patent US12054487B2, “Muscarinic acetylcholine M1 receptor antagonists” (Contineum Therapeutics, Inc., priority 2018, dated 2024)
